PubChem BioAssay AID256 (DTP/NCI, 2004)
Where “and” joins values, the source holds several entries; their conditions need not be identical. Equal entries are not always repeated. Inconclusive results and toxic doses are left out.

Tested on: CD2F1 mice, L1210 leukemia ip, survival T/C
Assay: NCI In Vivo Anticancer Drug Screen. Data for tumor model L1210 Leukemia (intraperitoneal) in CD2F1 (CDF1) mice
Conditions: higher = longer survival
Outline: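 Read-out first: treated-group measurement over vehicle-control measurement, expressed as a ratio. Animals bore a transplanted tumor line and were dosed with compound or vehicle.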

SMILES: CN(Cc1cnc2nc(N)nc(N)c2n1)c1ccc(C(=O)N[C@@H](CCC(=O)O)C(=O)O)cc1
- T/C (endpoint: mean survival time, dose: 0.13 mg/kg/injection, schedule: Q01DX009 (ip), vehicle: saline): 119 % of control
- T/C (endpoint: mean survival time, dose: 0.19 mg/kg/injection, schedule: Q01DX009 (ip), vehicle: alkali diluted with saline): 115 % of control
- T/C (endpoint: mean survival time, dose: 0.25 mg/kg/injection, schedule: Q01DX009 (ip), vehicle: sodium bicarbonate): 115 % of control
- T/C (endpoint: mean survival time, dose: 0.25 mg/kg/injection, schedule: Q03HX008 (ip), vehicle: saline): 122 % of control
- T/C (endpoint: mean survival time, dose: 0.38 mg/kg/injection, schedule: Q01DX009 (ip), vehicle: alkali diluted with saline): 120 % of control
- T/C (endpoint: mean survival time, dose: 0.38 mg/kg/injection, schedule: Q01DX009 (ip), vehicle: other): 154 % of control
- T/C (endpoint: mean survival time, dose: 0.44 mg/kg/injection, schedule: Q01DX009 (ip), vehicle: sodium bicarbonate): 156 % of control
- T/C (endpoint: mean survival time, dose: 0.47 mg/kg/injection, schedule: Q01DX009 (ip), vehicle: sodium bicarbonate): 160 % of control
- T/C (endpoint: mean survival time, dose: 0.5 mg/kg/injection, schedule: Q01DX005 (ip), vehicle: sodium bicarbonate): 115 % of control and 122 % of control
- T/C (endpoint: mean survival time, dose: 0.5 mg/kg/injection, schedule: Q01DX007 (ip), vehicle: other): 117 % of control
- T/C (endpoint: mean survival time, dose: 0.5 mg/kg/injection, schedule: Q01DX009 (ip), vehicle: saline): 159 % of control
- T/C (endpoint: mean survival time, dose: 0.75 mg/kg/injection, schedule: Q01DX009 (ip), vehicle: alkali diluted with saline): 152 % of control and 163 % of control
- T/C (endpoint: mean survival time, dose: 0.75 mg/kg/injection, schedule: Q01DX009 (ip), vehicle: other): 154 % of control
- T/C (endpoint: mean survival time, dose: 0.78 mg/kg/injection, schedule: Q01DX009 (ip), vehicle: sodium bicarbonate): 166 % of control
- T/C (endpoint: mean survival time, dose: 1.0 mg/kg/injection, schedule: Q01DX005 (ip), vehicle: sodium bicarbonate): 113 % of control
- T/C (endpoint: mean survival time, dose: 1.0 mg/kg/injection, schedule: Q01DX009 (ip), vehicle: saline): 171 % of control and 183 % of control
- T/C (endpoint: mean survival time, dose: 1.3 mg/kg/injection, schedule: Q01DX009 (ip), vehicle: sodium bicarbonate): 181 % of control
- T/C (endpoint: mean survival time, dose: 1.5 mg/kg/injection, schedule: Q01DX009 (ip), vehicle: alkali diluted with saline): 177 % of control and 178 % of control
- T/C (endpoint: mean survival time, dose: 1.5 mg/kg/injection, schedule: Q01DX009 (ip), vehicle: other): 150 % of control and 164 % of control
- T/C (endpoint: mean survival time, dose: 2.0 mg/kg/injection, schedule: Q01DX007 (ip), vehicle: other): 164 % of control
- T/C (endpoint: mean survival time, dose: 2.0 mg/kg/injection, schedule: Q01DX009 (ip), vehicle: saline): 161 % of control
- T/C (endpoint: mean survival time, dose: 2.0 mg/kg/injection, schedule: Q02DX005 (ip), vehicle: sodium bicarbonate): 170 % of control
- T/C (endpoint: mean survival time, dose: 2.0 mg/kg/injection, schedule: Q03DX003 (ip), vehicle: sodium bicarbonate): 158 % of control
- T/C (endpoint: mean survival time, dose: 2.0 mg/kg/injection, schedule: Q04DX003 (ip), vehicle: sodium bicarbonate): 160 % of control
- T/C (endpoint: mean survival time, dose: 2.16 mg/kg/injection, schedule: Q01DX009 (ip), vehicle: sodium bicarbonate): 179 % of control
- T/C (endpoint: mean survival time, dose: 2.3 mg/kg/injection, schedule: Q01DX009 (ip), vehicle: sodium bicarbonate): 164 % of control
- T/C (endpoint: mean survival time, dose: 2.3 mg/kg/injection, schedule: Q04DX003 (ip), vehicle: saline): 114 % of control
- T/C (endpoint: mean survival time, dose: 2.5 mg/kg/injection, schedule: Q04DX003 (ip), vehicle: sodium bicarbonate): 116 % of control
- T/C (endpoint: mean survival time, dose: 4.0 mg/kg/injection, schedule: Q01DX005 (ip), vehicle: sodium bicarbonate): 160 % of control
- T/C (endpoint: mean survival time, dose: 4.0 mg/kg/injection, schedule: Q04DX003 (ip), vehicle: saline): 166 % of control
- T/C (endpoint: mean survival time, dose: 4.0 mg/kg/injection, schedule: Q04DX003 (ip), vehicle: sodium bicarbonate): 169 % of control
- T/C (endpoint: mean survival time, dose: 4.6 mg/kg/injection, schedule: Q04DX003 (ip), vehicle: saline): 164 % of control
- T/C (endpoint: mean survival time, dose: 5.0 mg/kg/injection, schedule: Q04DX003 (ip), vehicle: alkali diluted with saline): 156 % of control
- T/C (endpoint: mean survival time, dose: 5.0 mg/kg/injection, schedule: Q04DX003 (ip), vehicle: sodium bicarbonate): 159 % of control
- T/C (endpoint: mean survival time, dose: 5.4 mg/kg/injection, schedule: Q04DX003 (ip), vehicle: sodium bicarbonate): 165 % of control
- T/C (endpoint: mean survival time, dose: 8.0 mg/kg/injection, schedule: Q01DX001 (ip), vehicle: saline): 116 % of control
- T/C (endpoint: mean survival time, dose: 8.0 mg/kg/injection, schedule: Q03DX003 (ip), vehicle: sodium bicarbonate): 181 % of control
- T/C (endpoint: mean survival time, dose: 9.0 mg/kg/injection, schedule: Q04DX003 (ip), vehicle: sodium bicarbonate): 176 % of control
- T/C (endpoint: mean survival time, dose: 9.2 mg/kg/injection, schedule: Q04DX003 (ip), vehicle: saline): 175 % of control
- T/C (endpoint: mean survival time, dose: 10.0 mg/kg/injection, schedule: Q01DX005 (ip), vehicle: sodium bicarbonate): 164 % of control
- T/C (endpoint: mean survival time, dose: 10.0 mg/kg/injection, schedule: Q04DX003 (ip), vehicle: alkali diluted with saline): 154 % of control and 164 % of control
- T/C (endpoint: mean survival time, dose: 10.0 mg/kg/injection, schedule: Q04DX004 (ip), vehicle: sodium bicarbonate): 165 % of control and 183 % of control
- T/C (endpoint: mean survival time, dose: 15.0 mg/kg/injection, schedule: Q04DX004 (ip), vehicle: sodium bicarbonate): 168 % of control and 170 % of control
- T/C (endpoint: mean survival time, dose: 16.0 mg/kg/injection, schedule: Q04DX003 (ip), vehicle: saline): 150 % of control
- T/C (endpoint: mean survival time, dose: 25.0 mg/kg/injection, schedule: Q04DX003 (ip), vehicle: sodium bicarbonate): 174 % of control
- T/C (endpoint: mean survival time, dose: 25.0 mg/kg/injection, schedule: Q04DX004 (ip), vehicle: sodium bicarbonate): 175 % of control
- T/C (endpoint: mean survival time, dose: 32.0 mg/kg/injection, schedule: Q04DX003 (ip), vehicle: saline): 174 % of control
- T/C (endpoint: mean survival time, dose: 35.0 mg/kg/injection, schedule: Q04DX003 (ip), vehicle: sodium bicarbonate): 175 % of control
- T/C (endpoint: mean survival time, dose: 36.8 mg/kg/injection, schedule: Q04DX003 (ip), vehicle: saline): 159 % of control
- T/C (endpoint: mean survival time, dose: 41.7 mg/kg/injection, schedule: Q04DX003 (ip), vehicle: sodium bicarbonate): 116 % of control
- T/C (endpoint: mean survival time, dose: 64.0 mg/kg/injection, schedule: Q04DX003 (ip), vehicle: saline): 120 % of control
- T/C (endpoint: mean survival time, dose: 73.5 mg/kg/injection, schedule: Q04DX003 (ip), vehicle: saline): 124 % of control
- T/C (endpoint: mean survival time, dose: 128.0 mg/kg/injection, schedule: Q04DX003 (ip), vehicle: saline): 120 % of control
- T/C (endpoint: median survival time, dose: 0.5 mg/kg/injection, schedule: Q01DX005 (ip), vehicle: sodium bicarbonate): 113 % of control
- T/C (endpoint: median survival time, dose: 0.52 mg/kg/injection, schedule: Q01DX009 (ip), vehicle: sodium bicarbonate): 152 % of control
- T/C (endpoint: median survival time, dose: 0.6 mg/kg/injection, schedule: Q06HX024 (ip), vehicle: saline): 116 % of control
- T/C (endpoint: median survival time, dose: 0.86 mg/kg/injection, schedule: Q01DX009 (ip), vehicle: sodium bicarbonate): 165 % of control
- T/C (endpoint: median survival time, dose: 1.0 mg/kg/injection, schedule: Q01DX005 (ip), vehicle: sodium bicarbonate): 124 % of control
- T/C (endpoint: median survival time, dose: 1.25 mg/kg/injection, schedule: Q01DX009 (ip), vehicle: sodium bicarbonate): 173 % of control and 178 % of control
- T/C (endpoint: median survival time, dose: 1.56 mg/kg/injection, schedule: Q01DX009 (ip), vehicle: sodium bicarbonate): 171 % of control
- T/C (endpoint: median survival time, dose: 2.5 mg/kg/injection, schedule: Q01DX009 (ip), vehicle: sodium bicarbonate): 182 % of control
- T/C (endpoint: median survival time, dose: 3.0 mg/kg/injection, schedule: Q01DX005 (ip), vehicle: sodium bicarbonate): 160 % of control and 175 % of control
- T/C (endpoint: median survival time, dose: 3.0 mg/kg/injection, schedule: Q01DX009 (ip), vehicle: sodium bicarbonate): 156 % of control
- T/C (endpoint: median survival time, dose: 4.0 mg/kg/injection, schedule: Q01DX005 (ip), vehicle: sodium bicarbonate): 168 % of control and 181 % of control
- T/C (endpoint: median survival time, dose: 4.5 mg/kg/injection, schedule: Q01DX005 (ip), vehicle: sodium bicarbonate): 169 % of control (2×) and 183 % of control
- T/C (endpoint: median survival time, dose: 5.4 mg/kg/injection, schedule: Q04DX003 (ip), vehicle: sodium bicarbonate): 163 % of control and 168 % of control
- T/C (endpoint: median survival time, dose: 6.0 mg/kg/injection, schedule: Q01DX005 (ip), vehicle: sodium bicarbonate): 171 % of control and 179 % of control
- T/C (endpoint: median survival time, dose: 9.0 mg/kg/injection, schedule: Q04DX003 (ip), vehicle: sodium bicarbonate): 175 % of control
- T/C (endpoint: median survival time, dose: 12.5 mg/kg/injection, schedule: Q01DX001 (ip), vehicle: sodium bicarbonate): 116 % of control
- T/C (endpoint: median survival time, dose: 15.0 mg/kg/injection, schedule: Q04DX003 (ip), vehicle: sodium bicarbonate): 175 % of control
- T/C (endpoint: median survival time, dose: 25.0 mg/kg/injection, schedule: Q04DX003 (ip), vehicle: sodium bicarbonate): 173 % of control
- T/C (endpoint: median survival time, dose: 72.0 mg/kg/injection, schedule: Q01DX001 (ip), vehicle: sodium bicarbonate): 113 % of control and 122 % of control
- T/C (endpoint: median survival time, dose: 400.0 mg/kg/injection, schedule: Q01DX001 (ip), vehicle: sodium bicarbonate): 177 % of control

SMILES: COCC1OC2OC3C(COC)OC(OC4C(COC)OC(OC5C(COC)OC(OC6C(COC)OC(OC7C(COC)OC(OC8C(COC)OC(OC1C(O)C2O)C(O)C8O)C(O)C7O)C(O)C6O)C(O)C5O)C(O)C4O)C(O)C3O (stereo not given) (tested in a mixture with another compound)
- T/C (endpoint: mean survival time, dose: 25.0 mg/kg/injection, schedule: Q01DX009 (ip), vehicle: Klucel (hydroxypropylcellulose) (HPC)): 98 % of control
- T/C (endpoint: mean survival time, dose: 50.0 mg/kg/injection, schedule: Q01DX009 (ip), vehicle: Klucel (hydroxypropylcellulose) (HPC)): 98 % of control
- T/C (endpoint: mean survival time, dose: 100.0 mg/kg/injection, schedule: Q01DX009 (ip), vehicle: Klucel (hydroxypropylcellulose) (HPC)): 94 % of control
- T/C (endpoint: mean survival time, dose: 200.0 mg/kg/injection, schedule: Q01DX009 (ip), vehicle: Klucel (hydroxypropylcellulose) (HPC)): 96 % of control
- T/C (endpoint: mean survival time, dose: 400.0 mg/kg/injection, schedule: Q01DX009 (ip), vehicle: Klucel (hydroxypropylcellulose) (HPC)): 93 % of control

SMILES: COC(=O)C1CC[N-]CC1.COC(=O)C1CC[N-]CC1.[Cl][Pt+2][Cl]
- T/C (endpoint: mean survival time, dose: 100.0 mg/kg/injection, schedule: Q01DX009 (ip), vehicle: saline with Tween-80): 115 % of control
- T/C (endpoint: mean survival time, dose: 200.0 mg/kg/injection, schedule: Q01DX009 (ip), vehicle: saline with Tween-80): 114 % of control
